Results reported in US9883671B2, “Mixture of natural or nature-identical alcohols with improved effectiveness” (L'AIR LIQUIDE, SOCIETE ANONYME POUR L'ETUDE ET …, priority 2012, dated 2018).

Test system: inoculation solution of test organisms: Staphylococcus aureus, Kocuria rhizophila, Enterobacter gergoviae, Escherichia coli, Klebsiella pneumoniae, Pseudomonas …
Experiment: Determination of the preserving effect of chemical preservatives in cosmetic formulations (Koko test), Carbopol gel
Type: cell-based, bacteria, yeast and moulds (mixed inoculum, ATCC strains)
Conditions: 0.1% by weight; inferred from Experiment 9 compared with Experiment 2
Protocol: Method A—Determination of the Preserving Effect of Chemical Preservatives in Cosmetic Formulations (Koko Test) The test described below is carried out to determine the preserving effect of chemical preservatives in cosmetic formulations. Using the described method, the aim is to test the effectiveness of chemical preservatives with regard to the pack preservation for cosmetic formulations. For this purpose, the preservatives to be tested are added in various concentrations to the unpreserved samples in different experimental batches. A continuous microbial burden is achieved by periodically inoculating the experimental batches. In parallel to the inoculation, streaks of the individual batches are in each case made immediately beforehand. Assessment is made by reference to the microbial growth of the streaks. […] In each case, 25 g of the cosmetic to be tested are weighed into wide-necked bottles with screw closure (LDPE). […] The preserving effect of the individual product concentrations is assessed in a semi-quantitative method by means of the growth of the individual streaks. […] The sample is well-preserved according to criterion A if it exists under the laboratory conditions given above for a period of six weeks without microbial attack of the sample batches, i.e. no microbial growth can be detected even after the sixth inoculation. […]

CCCCCCCCCCCO [Experiment 1-undecanol, 1-undecanol]
Preserving effect of the substance by itself, inferred: no effect
